Values of other authors in patent US20230149366A1, “SOLID DOSAGE FORMS OF TAFAMIDIS” (Nuray Chemicals Private Limited, priority 2021, published 2023).

Settings: Vyndaqel European Public assessment report

## O=C(O)c1ccc2nc(-c3cc(Cl)cc(Cl)c3)oc2c1 [tafamidis, 2-(3,5-dichlorophenyl)-1,3-benzoxazole-6-carboxylic acid]
  Solubility in vehicles commonly used in formulating soft gelatin capsules: poor solubility
Upon contact with aqueous vehicles
  Gel formation in hard gelatin capsule with standard excipients: formed a rigid gel structure
